Measured values taken from patent US10442800B2, “Crystal forms of NBI-98854, preparation method and use thereof” (Crystal Pharmaceutical (Suzhou) Co., Ltd., priority 2016, dated 2019).

Legend:
Type in all cases: physicochemical
[1] = Hygroscopicity experiment by Dynamic Vapor Sorption (DVS); conditions: 25° C.; for hygroscopicity class: Chinese Pharmacopoeia 2015 definition, 80% RH; for weight gain: DVS, at 80% RH
Procedure: Dynamic Vapor Sorption (DVS) is measured via a SMS (Surface Measurement Systems Ltd.) intrinsic DVS. Its control software is DVS-Intrinsic control software, and its analysis software is DVS-Intrinsic analysis software. Typical Parameters for DVS test are as follows:
Gas and flow rate: N2, 200 mL/min
RH range: 0% RH to 95% RH
14.3 mg of Form CS1 was placed in a DVS instrument and underwent a cycle of 0%-95%-0% RH. The DVS curve is substantially as depicted in FIG. 12. A weight gain of 0.08% is observed at 80% RH.
8.6 mg of Form CS2 was placed in a DVS instrument and underwent a cycle of 40%-95%-0%-95% RH. A weight gain of 0.56% is observed at 80% RH.

[2] = Stability assessment under storage (XRPD for crystalline form, HPLC for chemical purity); conditions: for stability (overall conclusion): 25° C./60% RH and 40° C./75% RH for 1 month; for Purity / Initial purity: HPLC; for Initial purity: initial sample before storage; for Crystalline form: XRPD
Description: X-ray powder diffraction pattern in the present disclosure was acquired by a Panalytical Empyrean X-ray powder diffractometer. The parameters of the X-ray powder diffraction method of the present disclosure were as follows:
High Performance Liquid Chromatography (HPLC) data in the present disclosure are collected from Agilent 1100 with diode array detector (DAD). The HPLC method parameters for purity test in the present disclosure are as follows:
1. Column: Waters Xbridge C18 150×4.6 mm, 5 μm
2. Mobile Phase: A: 0.1% TFA in H2O • B: 0.1% TFA in Acetonitrile • Gradient: […]
4. Injection Volume: 10 μL
5. Detection wavelength: 230 nm
6. Column Temperature: 40° C.
7. Diluent: 50% Acetonitrile
(§1) Form CS1 in the present disclosure was stored under different conditions of 25° C./60% RH and 40° C./75% RH for 1 month. Samples were taken at the end of 1 month. XRPD and HPLC were used to test the crystalline form and chemical purity. The XRPD overlay is shown in FIG. 14 (Above is the initial sample, in the middle is the sample placed under 25° C./60% RH for 1 month, at the bottom is the sample placed under 40° C./75% RH for 1 month).
as §1, with “CS2” for “CS1”, “The experimental results are summarized in Table 9. the” for “The”, “15” for “14”

[3] = Morphology test by polarized light microscopy (PLM); conditions: PLM image
Procedure: Form CS1 and Form CS2 in the present disclosure were tested by polarized light microscopy, and the results were depicted in FIG. 16 and FIG. 17. The morphologies of Form CS1 and Form CS2 are needle and block, respectively. Both forms disperse well and have little agglomeration. It can be seen from the PLM images that the morphologies of Form CS1 and Form CS2 in the present disclosure are suitable for the development of drug product.

COc1cc2c(cc1OC)[C@H]1C[C@@H](OC(=O)[C@@H](N)C(C)C)[C@H](CC(C)C)CN1CC2 [Form CS1, (S)-2-amino-3-methyl-butyric acid (2R,3R,11bR)-3-isobutyl-9,10-dimethoxy-1,3,4 6,7,11b-hexahydro-2H-pyrido[2,1-a]isoquinolin-2-yl ester]
hygroscopicity class [1]: almost non hygroscopic | weight gain [1]: 0.08% | stability (overall conclusion) [2]: good stability | Purity ([2]; after 25° C./60% RH (1 month)): 98.21% | Purity ([2]; after 40° C./75% RH (1 month)): 97.76% | Initial purity [2]: 98.02% | Crystalline form ([2]; after 25° C./60% RH (1 month)): unchanged | Crystalline form ([2]; after 40° C./75% RH (1 month)): unchanged | morphology [3]: needle

COc1cc2c(cc1OC)[C@H]1C[C@@H](OC(=O)[C@@H](N)C(C)C)[C@H](CC(C)C)CN1CC2 [Form CS2, (S)-2-amino-3-methyl-butyric acid (2R,3R,11bR)-3-isobutyl-9,10-dimethoxy-1,3,4 6,7,11b-hexahydro-2H-pyrido[2,1-a]isoquinolin-2-yl ester]
hygroscopicity class [1]: slightly hygroscopic | weight gain [1]: 0.56% | stability (overall conclusion) [2]: good stability | Purity ([2]; after 25° C./60% RH (1 month)): 98.60% | Purity ([2]; after 40° C./75% RH (1 month)): 97.38% | Initial purity [2]: 98.34% | Crystalline form ([2]; after 25° C./60% RH (1 month)): unchanged | Crystalline form ([2]; after 40° C./75% RH (1 month)): unchanged | morphology [3]: block
